In patent publication US10080739B2, “Aryl imidazoles and their use as anti-cancer agents” (Aptose Biosciences Inc., priority 2003, dated 2018):

Tests used:
PAR-1Bα = target: T1, PAR-1Bα (Homo sapiens, UniProt Q7KZI7); assay: kinase profiler, PAR-1Bα; type: biochemical; conditions: 10 μM compound, 100 μM ATP, mean of % control
T1 construct: purchased Upstate Biotechnologies (kinase profiler service)
Description: (§1) Compound 45 was tested for its ability to function as a kinase inhibitor using the kinase profiler service from Upstate Biotechnologies. The general protocol employed is as follows: recombinant kinases were incubated with specific substrates, 10 mM MgAcetate, and [γ-^33P-ATP]. The reaction was initiated by the addition of MgATP mix. After incubation at room temperature for 40 minutes, the reaction was stopped by the addition of 5 μl of a 3% phosphoric acid solution. 10 μl of the reaction was then spotted on to a P30 filtermat and washed 3 times for 5 min. in 75 mM phosphoric acid and once in methanol prior to drying and scintillation counting. Each reaction was performed in duplicate with 100 μM ATP −/+10 μM compound 45. Results are presented in Table IV and are expressed as the mean of % control (no compound). PI 3-kinase-γ (PI3K-γ) activity was determined with the PIProfiler™ assay, which measures the binding of the GRP1 pleckstrin homology (PH) domain to PIP3, the product of PI3K acting on its physiological substrate PIP2.

Fms = target: T2, Fms (Homo sapiens, UniProt P07333); assay: kinase profiler, Fms; type: biochemical; conditions: 10 μM compound, 100 μM ATP, mean of % control
T2 construct: purchased Upstate Biotechnologies (kinase profiler service)
Description: as §1

Ax1 = target: T3, Ax1 (Homo sapiens, UniProt P30530); assay: kinase profiler, Ax1; type: biochemical; conditions: 10 μM compound, 100 μM ATP, mean of % control
T3 construct: purchased Upstate Biotechnologies (kinase profiler service)
T3 sequence (P30530 26-894): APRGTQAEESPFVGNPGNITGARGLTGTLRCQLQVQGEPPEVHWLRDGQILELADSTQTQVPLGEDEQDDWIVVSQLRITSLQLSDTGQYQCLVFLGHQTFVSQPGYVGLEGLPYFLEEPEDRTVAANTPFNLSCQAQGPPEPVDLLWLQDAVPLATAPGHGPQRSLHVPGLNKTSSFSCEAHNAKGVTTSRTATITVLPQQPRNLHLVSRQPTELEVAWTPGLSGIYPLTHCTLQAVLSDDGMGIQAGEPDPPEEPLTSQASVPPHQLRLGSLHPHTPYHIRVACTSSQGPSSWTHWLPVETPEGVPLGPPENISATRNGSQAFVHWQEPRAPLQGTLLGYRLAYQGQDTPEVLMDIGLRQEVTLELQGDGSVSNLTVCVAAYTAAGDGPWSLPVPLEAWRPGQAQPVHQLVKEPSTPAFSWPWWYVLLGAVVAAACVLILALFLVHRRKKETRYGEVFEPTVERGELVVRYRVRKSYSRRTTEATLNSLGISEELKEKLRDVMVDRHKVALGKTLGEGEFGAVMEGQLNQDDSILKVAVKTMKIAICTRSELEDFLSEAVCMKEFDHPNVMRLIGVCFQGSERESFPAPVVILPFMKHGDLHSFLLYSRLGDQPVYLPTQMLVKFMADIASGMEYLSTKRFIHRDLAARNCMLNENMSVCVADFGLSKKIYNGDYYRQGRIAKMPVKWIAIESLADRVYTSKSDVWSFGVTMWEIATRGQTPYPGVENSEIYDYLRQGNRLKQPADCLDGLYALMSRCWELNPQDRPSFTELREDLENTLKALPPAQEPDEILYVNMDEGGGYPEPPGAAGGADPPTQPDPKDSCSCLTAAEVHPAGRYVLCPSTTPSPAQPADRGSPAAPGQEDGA
Description: as §1

PRK2 = target: T4, PRK2 (Homo sapiens, UniProt Q16513); assay: kinase profiler, PRK2; type: biochemical; conditions: 10 μM compound, 100 μM ATP, mean of % control
T4 construct: purchased Upstate Biotechnologies (kinase profiler service)
T4 sequence (Q16513 whole entry): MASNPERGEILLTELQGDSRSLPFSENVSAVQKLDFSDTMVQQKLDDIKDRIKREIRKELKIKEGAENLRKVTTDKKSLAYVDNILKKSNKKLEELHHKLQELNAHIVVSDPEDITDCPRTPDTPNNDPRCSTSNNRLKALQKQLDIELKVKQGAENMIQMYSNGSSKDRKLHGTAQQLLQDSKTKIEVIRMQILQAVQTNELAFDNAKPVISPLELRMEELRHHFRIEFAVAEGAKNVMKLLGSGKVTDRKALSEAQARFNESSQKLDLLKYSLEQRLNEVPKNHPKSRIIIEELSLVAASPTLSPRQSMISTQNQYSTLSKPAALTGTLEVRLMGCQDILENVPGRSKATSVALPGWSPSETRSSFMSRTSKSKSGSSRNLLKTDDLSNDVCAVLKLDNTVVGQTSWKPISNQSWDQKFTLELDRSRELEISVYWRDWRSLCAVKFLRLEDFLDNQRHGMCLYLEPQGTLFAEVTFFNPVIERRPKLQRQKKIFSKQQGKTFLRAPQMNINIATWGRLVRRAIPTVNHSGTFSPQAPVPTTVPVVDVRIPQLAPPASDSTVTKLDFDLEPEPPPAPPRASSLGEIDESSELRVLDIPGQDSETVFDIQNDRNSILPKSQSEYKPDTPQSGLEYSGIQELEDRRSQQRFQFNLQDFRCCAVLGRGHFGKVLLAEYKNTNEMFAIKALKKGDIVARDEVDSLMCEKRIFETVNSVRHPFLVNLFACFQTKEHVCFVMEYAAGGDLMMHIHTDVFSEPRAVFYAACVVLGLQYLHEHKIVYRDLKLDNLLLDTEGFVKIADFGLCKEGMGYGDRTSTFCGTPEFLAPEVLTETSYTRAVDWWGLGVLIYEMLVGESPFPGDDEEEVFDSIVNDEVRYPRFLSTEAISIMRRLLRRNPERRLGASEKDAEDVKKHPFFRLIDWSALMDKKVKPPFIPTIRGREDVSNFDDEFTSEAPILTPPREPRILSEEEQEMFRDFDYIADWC
Description: as §1

[1] = system: HT29 colon adenocarcinoma cells; assay: morphological changes (vacuoles), HT29; type: cell-based, human; conditions: treatment for 24 hours
Excerpt: These vacuoles are not formed in DMSO- or doxorubicin-treated cells. Moreover, the nuclear membrane is no longer evident in the phase-contrast images of cells treated with compound 45, even though the nucleus is still intact, as shown by DAPI staining.

MEK1 = target: T5, MEK1 (Homo sapiens, UniProt Q02750); assay: kinase profiler, MEK1; type: biochemical; conditions: 10 μM compound, 100 μM ATP, mean of % control
T5 construct: purchased Upstate Biotechnologies (kinase profiler service)
T5 sequence (Q02750 whole entry): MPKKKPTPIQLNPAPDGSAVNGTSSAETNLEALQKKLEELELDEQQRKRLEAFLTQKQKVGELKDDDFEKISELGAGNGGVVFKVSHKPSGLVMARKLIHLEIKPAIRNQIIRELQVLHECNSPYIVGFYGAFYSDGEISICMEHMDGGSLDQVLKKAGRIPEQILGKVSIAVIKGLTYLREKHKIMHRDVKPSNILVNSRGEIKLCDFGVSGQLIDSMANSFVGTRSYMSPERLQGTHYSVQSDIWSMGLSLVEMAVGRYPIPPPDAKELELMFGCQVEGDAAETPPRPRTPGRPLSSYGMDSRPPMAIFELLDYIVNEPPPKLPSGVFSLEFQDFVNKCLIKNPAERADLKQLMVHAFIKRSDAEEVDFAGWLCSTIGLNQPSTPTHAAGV
Description: as §1

PKCδ = target: T6, PKCδ (Homo sapiens, UniProt Q05655); assay: kinase profiler, PKCδ; type: biochemical; conditions: 10 μM compound, 100 μM ATP, mean of % control
T6 construct: purchased Upstate Biotechnologies (kinase profiler service)
Description: as §1

JNK3 = target: T7, JNK3 (Homo sapiens, UniProt P53779); assay: kinase profiler, JNK3; type: biochemical; conditions: 10 μM compound, 100 μM ATP, mean of % control
T7 construct: purchased Upstate Biotechnologies (kinase profiler service)
T7 sequence (P53779 whole entry): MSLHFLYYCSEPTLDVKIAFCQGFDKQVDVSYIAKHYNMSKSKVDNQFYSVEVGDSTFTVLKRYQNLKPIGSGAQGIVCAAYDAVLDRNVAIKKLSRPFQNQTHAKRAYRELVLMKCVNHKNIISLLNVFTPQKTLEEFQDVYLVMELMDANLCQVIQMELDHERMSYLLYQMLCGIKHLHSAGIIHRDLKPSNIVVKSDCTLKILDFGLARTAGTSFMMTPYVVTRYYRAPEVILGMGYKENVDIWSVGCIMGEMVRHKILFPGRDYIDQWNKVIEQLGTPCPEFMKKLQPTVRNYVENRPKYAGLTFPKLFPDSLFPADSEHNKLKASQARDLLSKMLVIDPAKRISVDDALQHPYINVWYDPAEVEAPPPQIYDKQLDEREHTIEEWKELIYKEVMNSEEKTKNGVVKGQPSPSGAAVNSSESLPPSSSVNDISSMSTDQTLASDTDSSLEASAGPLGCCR
Description: as §1

Pim-1 = target: T8, Pim-1 (Homo sapiens, UniProt P11309); assay: kinase profiler, Pim-1; type: biochemical; conditions: 10 μM compound, 100 μM ATP, mean of % control
T8 construct: purchased Upstate Biotechnologies (kinase profiler service)
Description: as §1

PDGFRα = target: T9, PDGFRα (Homo sapiens, UniProt P16234); assay: kinase profiler, PDGFRα; type: biochemical; conditions: 10 μM compound, 100 μM ATP, mean of % control
T9 construct: purchased Upstate Biotechnologies (kinase profiler service)
T9 sequence (P16234 24-1089): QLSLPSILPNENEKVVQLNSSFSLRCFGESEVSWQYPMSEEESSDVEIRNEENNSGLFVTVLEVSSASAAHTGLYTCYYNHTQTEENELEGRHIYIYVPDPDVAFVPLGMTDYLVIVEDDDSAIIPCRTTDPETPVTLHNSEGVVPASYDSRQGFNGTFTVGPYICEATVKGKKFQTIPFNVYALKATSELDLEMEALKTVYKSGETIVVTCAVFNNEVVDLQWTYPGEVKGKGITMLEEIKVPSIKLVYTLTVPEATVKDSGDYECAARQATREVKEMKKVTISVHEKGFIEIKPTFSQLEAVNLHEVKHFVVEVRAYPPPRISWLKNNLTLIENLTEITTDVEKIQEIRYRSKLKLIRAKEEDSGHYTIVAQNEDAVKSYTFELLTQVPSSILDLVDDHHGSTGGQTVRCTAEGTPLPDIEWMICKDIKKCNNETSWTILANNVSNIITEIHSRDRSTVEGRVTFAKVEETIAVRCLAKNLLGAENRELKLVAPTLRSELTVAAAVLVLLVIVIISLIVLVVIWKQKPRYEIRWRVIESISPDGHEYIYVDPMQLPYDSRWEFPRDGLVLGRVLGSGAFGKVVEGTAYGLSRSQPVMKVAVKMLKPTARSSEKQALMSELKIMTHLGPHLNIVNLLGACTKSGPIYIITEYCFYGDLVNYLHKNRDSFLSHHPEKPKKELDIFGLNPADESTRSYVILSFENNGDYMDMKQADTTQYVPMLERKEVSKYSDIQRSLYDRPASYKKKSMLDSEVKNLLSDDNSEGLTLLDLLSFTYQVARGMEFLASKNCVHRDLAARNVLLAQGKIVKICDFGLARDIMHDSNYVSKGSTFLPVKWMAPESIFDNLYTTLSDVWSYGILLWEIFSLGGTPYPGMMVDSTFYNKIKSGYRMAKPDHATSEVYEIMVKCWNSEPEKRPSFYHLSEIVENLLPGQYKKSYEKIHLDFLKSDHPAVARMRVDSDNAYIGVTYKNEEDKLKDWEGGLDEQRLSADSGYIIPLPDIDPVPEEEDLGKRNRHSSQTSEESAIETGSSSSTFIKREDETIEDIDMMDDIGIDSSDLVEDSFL
Description: as §1

PI 3-kinase-γ (PI3K-γ) = target: T10, PI 3-kinase-γ (PI3K-γ) (Homo sapiens, UniProt P48736); assay: PIProfiler assay, PI3K-γ; type: biochemical; conditions: PI3K[…] (PI3Kγ), 10 μM compound, mean of % control
T10 construct: purchased Upstate Biotechnologies (kinase profiler / PIProfiler service)
Description: as §1

CaMKIV = target: T11, CaMKIV (Homo sapiens, UniProt Q16566); assay: kinase profiler, CaMKIV; type: biochemical; conditions: 10 μM compound, 100 μM ATP, mean of % control
T11 construct: purchased Upstate Biotechnologies (kinase profiler service)
Description: as §1

renal cancer cell lines = assay: NCI/DTP screen, renal cancer cell lines; type: cell-based; conditions: Homo sapiens; renal cancer cell lines (FIG. 10B)
Description: (§2) The twenty-three compounds of Formula I shown below were evaluated for their antiproliferative effects in a panel of 60 human cancer cell lines as part of the in vitro anticancer screening services provided by the DTP (Developmental Therapeutics Program) of the US National Cancer Institute (NCI) U.S. National Cancer Institute (NCI) of the National Institutes of Health (NIH) in […], Md.
(§3) The NCI conducts a standard 48/72 hour 60 cell line assay and an in vitro time course assay as described in Alley et al. (Cancer Res (1988) 48:589). In the standard 60 cell line assay, a minimum of 5 concentrations of the test compound are tested at 10-fold dilutions against 60 cell lines and cell growth is assayed at 48 and 72 hours using a sulphorhodamine B assay. For the time course analysis, tumour cells are treated with the test compound at various time points, then washed and grown in medium free of the test compound until the end of the experiment at 144 hrs. This assay employs 20% FBS to better approximate the minimum c×t (concentrations and times) test compound exposure conditions that are required to achieve activity in vivo. Cell growth is quantified by an MTT assay (similar to the XTT assay described above) and the concentration of the test compound required for growth inhibition is determined. […]

[2] = system: panel of 60 human cancer cell lines; assay: NCI/DTP in vitro anticancer screen, 60 cell lines; type: cell-based; conditions: 60 cell; NCI panel of 60 human cancer cell lines, value per compound (FIG. 10A); read-out: GI50 (growth inhibition by 50%)
Description: as §2, §3

MAPKAP-K2 = target: T12, MAPKAP-K2 (Homo sapiens, UniProt P49137); assay: kinase profiler, MAPKAP-K2; type: biochemical; conditions: 10 μM compound, 100 μM ATP, mean of % control
T12 construct: purchased Upstate Biotechnologies (kinase profiler service)
T12 sequence (P49137 whole entry): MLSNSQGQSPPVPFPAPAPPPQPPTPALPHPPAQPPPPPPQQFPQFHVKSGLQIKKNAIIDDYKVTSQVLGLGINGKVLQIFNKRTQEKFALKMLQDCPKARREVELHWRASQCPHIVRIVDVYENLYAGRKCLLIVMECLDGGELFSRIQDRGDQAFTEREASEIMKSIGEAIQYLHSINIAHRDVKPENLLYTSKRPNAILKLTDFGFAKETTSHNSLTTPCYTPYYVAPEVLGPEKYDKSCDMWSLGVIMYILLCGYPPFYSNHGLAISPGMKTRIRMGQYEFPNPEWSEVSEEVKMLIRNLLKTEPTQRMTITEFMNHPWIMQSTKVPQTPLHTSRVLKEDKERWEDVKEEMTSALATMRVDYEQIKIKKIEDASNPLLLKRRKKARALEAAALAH
Description: as §1

T1 sequence (Q7KZI7 1-725 isoform Q7KZI7-4): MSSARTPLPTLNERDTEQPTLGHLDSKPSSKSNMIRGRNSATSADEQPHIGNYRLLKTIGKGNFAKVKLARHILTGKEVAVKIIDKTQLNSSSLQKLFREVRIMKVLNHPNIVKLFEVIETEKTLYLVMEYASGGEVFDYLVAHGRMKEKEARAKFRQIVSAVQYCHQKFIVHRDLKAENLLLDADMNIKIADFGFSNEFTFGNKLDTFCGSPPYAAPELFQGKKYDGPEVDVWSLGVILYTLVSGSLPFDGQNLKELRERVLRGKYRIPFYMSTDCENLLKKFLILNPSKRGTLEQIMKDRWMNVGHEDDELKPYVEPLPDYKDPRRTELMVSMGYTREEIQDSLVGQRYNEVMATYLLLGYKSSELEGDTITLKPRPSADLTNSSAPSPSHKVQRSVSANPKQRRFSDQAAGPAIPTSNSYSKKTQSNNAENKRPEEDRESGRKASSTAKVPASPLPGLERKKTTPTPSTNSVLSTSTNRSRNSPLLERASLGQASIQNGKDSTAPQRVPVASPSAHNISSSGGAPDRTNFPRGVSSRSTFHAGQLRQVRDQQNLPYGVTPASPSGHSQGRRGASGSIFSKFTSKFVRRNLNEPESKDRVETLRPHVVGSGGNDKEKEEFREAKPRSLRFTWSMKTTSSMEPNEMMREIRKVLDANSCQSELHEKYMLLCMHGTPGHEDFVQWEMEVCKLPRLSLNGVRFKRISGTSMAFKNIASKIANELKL

Compound: Brc1ccc2[nH]cc(-c3nc4c5ccccc5c5ccccc5c4[nH]3)c2c1 [Compound 45]
- activity at 10 µM (PAR-1Bα): 88%
- activity at 10 µM (Fms): 135%
- activity at 10 µM (Ax1): 100%
- activity at 10 µM (PRK2): 83%
- formation of vacuoles [1]: formation of large vacuoles within the cytoplasm
- activity at 10 µM (MEK1): 88%
- activity at 10 µM (PKCδ): 87%
- activity at 10 µM (JNK3): 121%
- activity at 10 µM (Pim-1): 70%
- activity at 10 µM (PDGFRα): 117%
- activity at 10 µM (PI 3-kinase-γ (PI3K-γ)): 22%
- activity at 10 µM (CaMKIV): 98%
- GI50 (renal cancer cell lines): 1300 nM
- GI50 [2]: 2000 nM
- activity at 10 µM (MAPKAP-K2): 119%
